According to ChEMBL document CHEMBL1201862, “PubChem BioAssay data set” (2004):
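Briefly, cells in 96-well plates were exposed to five compound concentrations for 48 h, and endpoints were estimated by linear interpolation. GI50: concentration for 50% inhibition of growth.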 The source made the active and inactive calls. Rule as the data show it: active = GI50 up to about 1.1 µM and inactive = higher.

Key:
Assay in all cases: NCI tumour cell line growth inhibition, 48 h
A498 = tested on: A498
A549 = tested on: A549
BT-549 = tested on: BT-549
COLO 205 = tested on: COLO 205
DU-145 = tested on: DU-145
HL-60 = tested on: HL-60
K562 = tested on: K562
M14 = tested on: M14
MDA-MB-231 = tested on: MDA-MB-231
MDA-MB-435 = tested on: MDA-MB-435
MDA-N = tested on: MDA-N
NCI-H226 = tested on: NCI-H226
OVCAR-3 = tested on: OVCAR-3
OVCAR-8 = tested on: OVCAR-8
RXF 393 = tested on: RXF 393
SF-539 = tested on: SF-539
T47D = tested on: T47D
TK-10 = tested on: TK-10
SK-OV-3 = tested on: SK-OV-3

SMILES | GI50 (A498) | GI50 (A549) | GI50 (BT-549) | GI50 (COLO 205) | GI50 (DU-145) | GI50 (HL-60) | GI50 (K562) | GI50 (M14) | GI50 (MDA-MB-231) | GI50 (MDA-MB-435) | GI50 (MDA-N) | GI50 (NCI-H226) | GI50 (OVCAR-3) | GI50 (OVCAR-8) | GI50 (RXF 393) | GI50 (SF-539) | GI50 (T47D) | GI50 (TK-10) | GI50 (SK-OV-3)
CNN1C(=O)c2c(N)c(C#N)c(-c3ccccc3)c(-c3ccccc3)c2C1=O | > 100 µM (inactive) | > 100 µM (inactive) | > 100 µM (inactive) | > 100 µM (inactive) | > 100 µM (inactive) | 30.5 µM (inactive) | 48.9 µM (inactive) | > 100 µM (inactive) | > 100 µM (inactive) | > 100 µM (inactive) | > 100 µM (inactive) | > 100 µM (inactive) | 34.6 µM (inactive) | 90.6 µM (inactive) | 82.8 µM (inactive) | 57.7 µM (inactive) | 17.9 µM (inactive) | > 100 µM (inactive) | 
Cc1ccc(N(Cc2ccccc2)Cc2ccccc2)cc1 | 61.4 µM (inactive) | 36.9 µM (inactive) | > 100 µM (inactive) | 24.3 µM (inactive) | > 100 µM (inactive) | 51.4 µM (inactive) | 55.8 µM (inactive) | 55.2 µM (inactive) | > 100 µM (inactive) | 37.2 µM (inactive) | 33.8 µM (inactive) | > 100 µM (inactive) | 32.8 µM (inactive) | > 100 µM (inactive) | 59 µM (inactive) | > 100 µM (inactive) | 30.9 µM (inactive) | > 100 µM (inactive) | > 100 µM (inactive)
O=C1Nc2cccc(C(F)(F)F)c2/C1=N/Nc1ccccc1[N+](=O)[O-] | 0.836 µM (active) | 48 µM (inactive) | > 100 µM (inactive) | 29.4 µM (inactive) | 33 µM (inactive) | 32.9 µM (inactive) | 17 µM (inactive) | > 100 µM (inactive) | 28.4 µM (inactive) | 18.7 µM (inactive) | 17.7 µM (inactive) | 23.1 µM (inactive) | 17.5 µM (inactive) | 26.1 µM (inactive) | > 100 µM (inactive) |  | 56.6 µM (inactive) | 14.8 µM (inactive) | 30.2 µM (inactive)
Clc1ccc(C2=Cc3nc2c(-c2ccccc2)c2ccc([nH]2)c(-c2ccccc2)c2nc(c(-c4ccccc4)c4ccc([nH]4)c3-c3ccccc3)C=C2)cc1 | > 62.5 µM (inactive) | > 62.5 µM (inactive) | > 62.5 µM (inactive) | > 62.5 µM (inactive) | > 62.5 µM (inactive) | > 62.5 µM (inactive) | > 62.5 µM (inactive) | > 62.5 µM (inactive) | > 62.5 µM (inactive) | > 62.5 µM (inactive) | > 62.5 µM (inactive) | > 62.5 µM (inactive) | > 62.5 µM (inactive) | > 62.5 µM (inactive) | > 62.5 µM (inactive) | > 62.5 µM (inactive) | > 62.5 µM (inactive) | > 62.5 µM (inactive) | > 62.5 µM (inactive)
CC1=CC(O)C(C(O)(C(F)(F)F)C(F)(F)F)C(C)(C)C1 (stereo unspecified) | 0.0296 µM (active) | > 10 µM (inactive) | > 10 µM (inactive) | > 10 µM (inactive) | > 10 µM (inactive) | > 10 µM (inactive) | > 10 µM (inactive) | < 0.001 µM (active) | > 10 µM (inactive) | < 0.001 µM (active) | > 10 µM (inactive) | > 10 µM (inactive) | > 10 µM (inactive) | > 10 µM (inactive) | > 10 µM (inactive) | > 10 µM (inactive) | > 10 µM (inactive) | > 10 µM (inactive) | > 10 µM (inactive)
NC1N=C(c2ccc(Cl)cc2)C2=C(N1)c1ccccc1CC2 (stereo unspecified) | 49.5 µM (inactive) | 20.3 µM (inactive) | > 100 µM (inactive) | 33.9 µM (inactive) | 52.4 µM (inactive) | 2.81 µM (inactive) | 3.48 µM (inactive) | 19.9 µM (inactive) | 10.5 µM (inactive) | 2.62 µM (inactive) | 2.29 µM (inactive) | 14.4 µM (inactive) | 16.7 µM (inactive) | 25.6 µM (inactive) | 7.96 µM (inactive) | 14.6 µM (inactive) | 10.4 µM (inactive) | 48.2 µM (inactive) | > 100 µM (inactive)
O=C(CC(=O)Nc1ccccc1Cl)NNC(Sc1ccccc1)c1cc(/N=N/c2ccc(Br)cc2)ccc1O (stereo unspecified) | 2.39 µM (inactive) | 3.08 µM (inactive) | 1.66 µM (inactive) | 4.35 µM (inactive) | 2.28 µM (inactive) | 0.315 µM (active) | 2.31 µM (inactive) | 0.785 µM (active) | 2.22 µM (inactive) | 2.06 µM (inactive) | 2.06 µM (inactive) | 1.67 µM (inactive) | 0.404 µM (active) | 0.598 µM (active) | 1.53 µM (inactive) | 1.45 µM (inactive) | 2.02 µM (inactive) | 1.69 µM (inactive) | 3.03 µM (inactive)
O=[N+]([O-])c1ccc2sc(/C=N/c3ccccn3)cc2c1 | > 100 µM (inactive) | > 100 µM (inactive) | 85.1 µM (inactive) | > 100 µM (inactive) | 77.6 µM (inactive) | 28.5 µM (inactive) | 26.8 µM (inactive) | > 100 µM (inactive) | 84.1 µM (inactive) | 71.6 µM (inactive) | > 100 µM (inactive) |  | 41.8 µM (inactive) | 35.2 µM (inactive) | > 100 µM (inactive) | > 100 µM (inactive) | 26 µM (inactive) | > 100 µM (inactive) | > 100 µM (inactive)
O=C1Nc2cc(Cl)ccc2C(=O)N2CCC[C@@H]12 | > 100 µM (inactive) | > 100 µM (inactive) | > 100 µM (inactive) | 57.1 µM (inactive) | > 100 µM (inactive) | > 100 µM (inactive) | > 100 µM (inactive) | > 100 µM (inactive) | > 100 µM (inactive) | > 100 µM (inactive) | > 100 µM (inactive) | 0.929 µM (active) |  | > 100 µM (inactive) | > 100 µM (inactive) |  | > 100 µM (inactive) | > 100 µM (inactive) | > 100 µM (inactive)
Cc1c(-c2cnccn2)ssc1=S [OLTIPRAZ] | 34.8 µM (inactive) | 98.9 µM (inactive) | 22 µM (inactive) | > 100 µM (inactive) | > 100 µM (inactive) | 61.9 µM (inactive) | > 100 µM (inactive) | > 100 µM (inactive) | 63.2 µM (inactive) | > 100 µM (inactive) | > 100 µM (inactive) | 94.2 µM (inactive) | 99.3 µM (inactive) | 72.4 µM (inactive) | 31.9 µM (inactive) | 63.1 µM (inactive) | 67.6 µM (inactive) | 62.7 µM (inactive) | 35.9 µM (inactive)
O=C(CN1C(=O)c2ccccc2C1=O)OCC1CCCN2CCCCC12 (stereo unspecified) | > 100 µM (inactive) | > 100 µM (inactive) | > 100 µM (inactive) | 99.5 µM (inactive) | > 100 µM (inactive) | > 100 µM (inactive) | > 100 µM (inactive) |  | > 100 µM (inactive) | > 100 µM (inactive) | > 100 µM (inactive) | > 100 µM (inactive) |  | > 100 µM (inactive) | > 100 µM (inactive) | > 100 µM (inactive) | > 100 µM (inactive) | > 100 µM (inactive) | > 100 µM (inactive)
O=C(/C=C/NC(=O)OCc1ccccc1)OCc1ccccc1 | > 100 µM (inactive) | > 100 µM (inactive) | > 100 µM (inactive) | > 100 µM (inactive) | > 100 µM (inactive) | > 100 µM (inactive) | > 100 µM (inactive) | > 100 µM (inactive) | 28.1 µM (inactive) | > 100 µM (inactive) | > 100 µM (inactive) | > 100 µM (inactive) | > 100 µM (inactive) | > 100 µM (inactive) | > 100 µM (inactive) | 64.9 µM (inactive) | > 100 µM (inactive) | 86.7 µM (inactive) | 32.4 µM (inactive)
S=C(N/N=C(/c1ccccc1)c1ccccn1)N1CCCCCC1 | 0.269 µM (active) | < 0.0371 µM (active) | 0.564 µM (active) | < 0.018 µM (active) | 0.369 µM (active) | < 0.0103 µM (active) | < 0.0115 µM (active) | 0.001 µM (active) | 0.01 µM (active) | 0.0843 µM (active) | < 0.044 µM (active) | 0.0379 µM (active) | 0.01 µM (active) | < 0.0256 µM (active) | 0.67 µM (active) | 0.198 µM (active) | 0.0843 µM (active) | 0.112 µM (active) | < 0.027 µM (active)
CN(C)CCCc1cccnc1 | > 100 µM (inactive) | > 100 µM (inactive) | > 100 µM (inactive) | > 100 µM (inactive) | > 100 µM (inactive) | > 100 µM (inactive) | > 100 µM (inactive) | > 100 µM (inactive) | > 100 µM (inactive) | > 100 µM (inactive) | > 100 µM (inactive) | > 100 µM (inactive) | > 100 µM (inactive) | > 100 µM (inactive) | > 100 µM (inactive) |  | > 100 µM (inactive) | > 100 µM (inactive) | > 100 µM (inactive)
COc1ccccc1N1C(=O)/C(=C\c2cc(OC)c(OC)c(OC)c2)S(=O)(=O)C1c1ccccc1 (stereo unspecified) | 48.2 µM (inactive) | 44 µM (inactive) | 30.5 µM (inactive) | 26.9 µM (inactive) | 62.1 µM (inactive) |  | 28.6 µM (inactive) | 31 µM (inactive) | 52.6 µM (inactive) | 16 µM (inactive) | 18.4 µM (inactive) | 44.8 µM (inactive) | 18.2 µM (inactive) | 37.2 µM (inactive) | 10.6 µM (inactive) | 25.5 µM (inactive) | 29.6 µM (inactive) | > 100 µM (inactive) | 20.6 µM (inactive)
